The test system of this test is E. coli ATCC 25922. As to the kind of experiment: Time-dependent killing. The test is classed as cell-based. As to conditions: antibiotic at 4x MIC.

With `CC1(C)S[C@@H]2[C@H](NC(=O)[C@H](N)c3ccccc3)C(=O)N2[C@H]1C(=O)O` [Ampicillin, ampicillin], the “c.f.u. in time-dependent killing” value was “fell below the limit of detection”.

Source of the values: PMC10155127 (Nature microbiology, 2022).
